Patent US7238697B2, “Pyridylpyrimidines for use as pesticides” (Bayer CropScience AG, priority 2001, dated 2007)

Assay: log P determination by HPLC (reversed-phase C18), EEC Directive 79/831 Annex V.A8
Assay type: physicochemical
Conditions: reversed-phase C18 HPLC column; pH 2.3; HPLC, reversed-phase C 18, 43° C., 0.1% aqueous phosphoric acid/acetonitrile; read-out: log P (pH 2.3)
Protocol: The stated log P values were determined in accordance with EEC Directive 79/831 Annex V.A8 by HPLC (High Performance Liquid Chromatography) using a reversed-phase column, (C 18). Temperature: 43° C. Mobile phases for the determination in the acidic range: 0.1% aqueous phosphoric acid, acetonitrile; linear gradient from 10% acetonitrile to 90% acetonitrile. Calibration was carried out using unbranched alkan-2-ones (having 3 to 16 carbon atoms) with known logP values (determination of the logP values by the retention times using linear interpolation between two successive alkanones).

| Structure (SMILES) | chromatographic logP |
| --- | --- |
| O=C(CSc1nccc(-c2ccccn2)n1)NC1CC1 [Example 69] | 1.56 |
| CC(C)(C)c1ccc(NC(=O)NCCCOC(=O)CSc2nccc(-c3ccccn3)n2)cc1 [Example 130] | 3.51 |
| O=C(CSc1nccc(-c2ccccn2)n1)NCc1cccc(C(F)(F)F)c1 [Example 46] | 2.62 |
| COc1ccc(CNC(=O)CSc2nccc(-c3ccccn3)n2)cc1 [Example 55] | 2 |
| COC(=O)C(Sc1nccc(-c2ccccn2)n1)c1ccccc1 (stereo not drawn) [Example 26] | 3.5 |
| COC(=O)CSc1nc(-c2ccccn2)cc(C(C)C)n1 [Example 112] | 3.11 |
| CC(C)N1CCN(C(=O)CSc2nccc(-c3ccccn3)n2)CC1 [Example 58] | 0.95 |
| CC(C)COC(=O)c1cccc(NC(=O)NCCCOC(=O)CSc2nccc(-c3ccccn3)n2)c1 [Example 131] | 3.45 |
| CCOC(=O)CN(CC)c1nccc(-c2ccccn2)n1 [Example 315] | 2.13 |
| CC(C)=NNC(=O)CSc1nccc(-c2ccccn2)n1 [Example 136] | 0.44 |
| O=C(CSc1nccc(-c2ccccn2)n1)NCc1ccc(Cl)cc1 [Example 54] | 2.38 |
| O=C(CSc1nccc(-c2ccccn2)n1)N/N=C/c1ccc([N+](=O)[O-])cc1 [Example 135] | 2.23 |
| CCOC(=O)COc1nccc(-c2ccccn2)n1 [Example 7, ethyl {[4-(2-pyridinyl)-2-pyrimidinyl]oxy}acetate] | 1.73 |
| O=C(CSc1nccc(-c2ccccn2)n1)OC1CS(=O)(=O)C1 [Example 173] | 1.67 |
| O=C(CSc1nccc(-c2ccccn2)n1)OCCOCC(F)(F)F [Example 236] | 2.7 |
| O=C(CSc1nccc(-c2ccccn2)n1)NC1CCCCC1 [Example 63] | 2.31 |
| Cn1nnnc1CSc1nccc(-c2ccccn2)n1 [Example 301] | 1.24 |
| O=C(CSc1nccc(-c2ccccn2)n1)N1CCCC1 [Example 68] | 1.75 |
| COC(=O)CSc1nc(-c2ccccn2)c2cc(Cl)ccc2n1 [Example 77] | 3.46 |

| Structure (SMILES) | chromatographic logP |
| --- | --- |
| O=C(CSc1nccc(-c2ccccn2)n1)OCCN1CCCCC1 [Example 99] | 1.04 |
| COC(=O)/C(O)=C\c1nccc(-c2ccccn2)n1 [Example 34] | 1.89 |
| O=C(CSc1nccc(-c2ccccn2)n1)NCc1ccc(C(F)(F)F)cc1 [Example 47] | 2.64 |
| O=C(CSc1nccc(-c2ccccn2)n1)OC(C(F)(F)F)C(F)(F)F [Example 120] | 3.59 |
| CS(=O)(=O)NC(=O)CSc1nccc(-c2ccccn2)n1 [Example 140] | 1.13 |
| CC1(CCCOC(=O)CSc2nccc(-c3ccccn3)n2)OCCO1 [Example 303] | 2.57 |
| CCOC(=O)CNc1nccc(-c2ccccn2)n1 [Example 5, ethyl N-(4-(2-pyridinyl)-2-pyrimidinyl]glycinate] | 1.14 |
| O=C(CSc1nccc(-c2ccccn2)n1)OCCCCOc1ccccc1 [Example 88] | 3.86 |
| O=C(CSc1nccc(-c2ccccn2)n1)NO [Example 36] | 0.55 |
| CCC(Sc1nccc(-c2ccccn2)n1)C(=O)OC (stereo not drawn) [Example 25] | 2.68 |
| CC(C)OC(=O)C(C)OC(=O)CSc1nccc(-c2ccccn2)n1 (stereo not drawn) [Example 194] | 2.95 |
| CC(CN1CCOCC1)OC(=O)CSc1nccc(-c2ccccn2)n1 (stereo not drawn) [Example 161] | 1.16 |
| C=CC(=O)OCCCOC(=O)CSc1nccc(-c2ccccn2)n1 [Example 224] | 2.49 |
| O=C(CSc1nccc(-c2ccccn2)n1)NCc1ccc(OC(F)(F)F)cc1 [Example 40] | 2.76 |
| CC(NC(=O)CSc1nccc(-c2ccccn2)n1)c1ccc(Cl)cc1 (stereo not drawn) [Example 50] | 2.58 |
| O=C(CSc1nccc(-c2ccccn2)n1)N1CCCCC1 [Example 66] | 2.09 |
| O=C(CSc1nccc(-c2ccccn2)n1)OC1COC1 [Example 249] | 1.69 |
| O=C(CSc1nccc(-c2ccccn2)n1)OCCCOc1ccc(F)cc1 [Example 91] | 3.59 |
| O=C(CSc1nccc(-c2ccccn2)n1)OCCn1ccnn1 [Example 210] | 1.42 |

| Structure (SMILES) | chromatographic logP |
| --- | --- |
| COC(=O)CSc1nc(-c2ccccn2)cc(-c2ccco2)n1 [Example 106] | 3.01 |
| O=C(NCCCOC(=O)CSc1nccc(-c2ccccn2)n1)Nc1ccc(C(F)(F)F)cc1 [Example 153] | 3.2 |
| CCOC(=O)CN(C)c1nccc(-c2ccccn2)n1 [Example 6, ethyl N-methyl-N-[4-(2-pyridinyl)-2-pyrimidinyl]glycinate] | 1.66 |
| COC(=O)CCCCSc1nccc(-c2ccccn2)n1 [Example 79] | 2.68 |
| CN(C(=O)CSc1nccc(-c2ccccn2)n1)C1CCCCC1 [Example 61] | 2.67 |
| O=C(CSc1nccc(-c2ccccn2)n1)OCCN1CCNC1=S [Example 160] | 1.59 |
| C=CCNC(=O)CSc1nccc(-c2ccccn2)n1 [Example 70] | 1.65 |
| CC(C)CNC(=O)CSc1nccc(-c2ccccn2)n1 [Example 32] | 1.81 |
| COC(=O)CSc1nc(-c2ccccn2)cc(C(F)(F)F)n1 [Example 114] | 3.34 |
| N#CCSc1nccc(-c2ccccn2)n1 [{[4-(2-pyridinyl)-2-pyrimidinyl]thio}acetonitrile] | 1.68 |
| CCC1(COC(=O)CSc2nccc(-c3ccccn3)n2)COCOC1 [Example 222] | 2.51 |
| CC(C)(C)OC(=O)NCCOC(=O)CSc1nccc(-c2ccccn2)n1 [Example 141] | 2.63 |
| CC(C)(C)OC(=O)NCCCOC(=O)CSc1nccc(-c2ccccn2)n1 [Example 142] | 2.79 |
| COCNC(=O)OCCOC(=O)CSc1nccc(-c2ccccn2)n1 [Example 175] | 1.64 |
| O=C(CSc1nccc(-c2ccccn2)n1)OCC(F)(F)C(F)(F)F [Example 118] | 3.24 |
| COC(=O)C(Sc1nccc(-c2ccccn2)n1)C(C)=O (stereo not drawn) [Example 23] | 2.34 |
| O=C(CSc1nccc(-c2ccccn2)n1)Nc1cccc([N+](=O)[O-])c1 [Example 308] | 2.25 |
| CCOC(=O)c1cc(NC(=O)NCCCOC(=O)CSc2nccc(-c3ccccn3)n2)ccc1Cl [Example 304] | 5.37 |

More lines, now with the values ahead:

| chromatographic logP | Structure (SMILES) |
| --- | --- |
| 2.2 | CN(C)C(=O)SCCOC(=O)CSc1nccc(-c2ccccn2)n1 [Example 178] |
| 3.56 | CC(C)CCOC(=O)CSc1nccc(-c2ccccn2)n1 [Example 89] |
| 3.19 | CCOC(=O)CSc1nccc(-c2cccc(Cl)n2)n1 [Example 111] |
| 2.88 | O=C(CSc1nccc(-c2ccccn2)n1)Oc1ccccc1 [Example 15] |
| 1.81 | COC(=O)CSc1nccc(-c2ccccn2)n1 [Example 10] |
| 2.53 | CCOC(=O)CSc1nccc(-c2ncccc2C(F)(F)F)n1 [Example 269] |
| 3.46 | CSCC(C)(C)COC(=O)CSc1nccc(-c2ccccn2)n1 [Example 186] |
| 3.81 | CC(C)(C)C(Cl)COC(=O)CSc1nccc(-c2ccccn2)n1 (stereo not drawn) [Example 205] |
| 2.04 | CCC(=O)NCCCOC(=O)CSc1nccc(-c2ccccn2)n1 [Example 216] |
| 2.46 | CCOC(=O)CSc1nccc(-c2cccc(C)n2)n1 [Example 105] |
| 2.04 | CCOC(=O)CSc1nccc(-c2ncccc2F)n1 [Example 281] |
| 2.45 | CCOC(=O)CSc1nc(C)cc(-c2ccccn2)n1 [Example 4, ethyl {[4-methyl-6-(2-pyridinyl)-2-pyrimidinyl]thio}acetate] |
| 1.96 | COCN(C)C(=O)COC(=O)CSc1nccc(-c2ccccn2)n1 [Example 230] |
| 3.07 | CCCCOC(=O)CSc1nccc(-c2ccccn2)n1 [Example 100] |
| 1.8 | COC(=O)CSc1nccc(-c2cc(C)ccn2)n1 [Example 103] |
| 2.76 | CCCOC(=O)CSc1nccc(-c2ccccn2)n1 [Example 16] |

| chromatographic logP | Structure (SMILES) |
| --- | --- |
| 1.93 | CCOC(=O)C(C)N(C)C(=O)CSc1nccc(-c2ccccn2)n1 (stereo not drawn) [Example 310] |
| 1.2 | O=C(CSc1nccc(-c2ccccn2)n1)OCCc1ccncc1 [Example 204] |
| 2.96 | CC(C)(C)OC(=O)CSc1nccc(-c2ccccn2)n1 [Example 35] |
| 3.19 | O=C(CSc1nccc(-c2ccccn2)n1)OCC(F)=C(Cl)Cl [Example 253] |
| 3.23 | CCOC(=O)CSc1nccc(-c2ccc(Cl)cn2)n1 [Example 256] |
| 2.56 | CC(C)OC(=O)CSc1nccc(-c2ccccn2)n1 [Example 1, isopropyl {[4-(2-pyridinyl)-2-pyrimidinyl]thio}-acetate] |
| 1.63 | O=C(CSc1nccc(-c2ccccn2)n1)OCC1COC(=O)O1 (stereo not drawn) [Example 192] |
| 3.67 | CCOC(=O)CSc1nccc(-c2cccc(OCC)n2)n1 [Example 104] |
| 3.37 | O=C(CSc1nccc(-c2ccccn2)n1)OCCc1ccccc1 [Example 83] |
| 3.3 | CCOC(=S)CSc1nccc(-c2ccccn2)n1 [Example 115] |
| 2.29 | COC(C)(C)COC(=O)CSc1nccc(-c2ccccn2)n1 [Example 179] |
| 1.97 | COCCOC(=O)CSc1nccc(-c2ccccn2)n1 [Example 20] |
| 3.49 | CCOC(=O)CSc1nccc(-c2ccc3ccccc3n2)n1 [Example 296] |
| 2.61 | O=C(CSc1nccc(-c2ccccn2)n1)OCC#CCCl [Example 207] |
| 2.78 | O=C(CSc1nccc(-c2ccccn2)n1)OCC(Cl)Cl [Example 123] |
